Measured values taken from the supplement of paper PMC10307832.

Assays:
Test in all cases: relative viability (nuclei count vs DMSO), 5 days (fraction); higher = more cells survive
[1] = compound: C[As](C)SC[C@H](NC(=O)CC[C@H](N)C(=O)O)C(=O)NCC(=O)O [Darinaparsin] + CS(=O)(=O)N1CCN(Cc2cc3nc(-c4cccc5[nH]ncc45)nc(N4CCOCC4)c3s2)CC1 [Pictilisib] (partner 1 µM)
Method in brief: (§1)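 Lung cancer cell lines were seeded in 1536-well plates and dosed by pin tool the next day, with either a single drug or a fixed anchor-drug dose combined with five library-drug doses (not always all listed) spaced in √10 steps. Five days later, one step fixed the cells and stained their nuclei (final 0.05% Triton X-100, 1% formaldehyde, 1 ug/ml Hoechst), and nuclei were counted on 4× images. Relative viability is the nuclei count in treated wells divided by the count in vehicle wells, and each value is the median of duplicate plates.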

Darinaparsin + Alpelisib = compound: C[As](C)SC[C@H](NC(=O)CC[C@H](N)C(=O)O)C(=O)NCC(=O)O [Darinaparsin] + Cc1nc(NC(=O)N2CCC[C@H]2C(N)=O)sc1-c1ccnc(C(C)(C)C(F)(F)F)c1 [Alpelisib] (partner 2 µM)
Method in brief: as §1

AZ628 + AZD7762 = compound: CC1=C(C=C(C=C1)NC(=O)C2=CC(=CC=C2)C(C)(C)C#N)NC3=CC4=C(C=C3)N=CN(C4=O)C [AZ628] + NC(=O)Nc1cc(-c2cccc(F)c2)sc1C(=O)N[C@H]1CCCNC1 [AZD7762] (partner 0.2 µM)
Method in brief: as §1

QS11 + Foretinib = compound: C1CC2=C(C1)C=C(C=C2)OC3=NC(=C4C(=N3)N(C=N4)CC5=CC=C(C=C5)C6=CC=CC=C6)N[C@@H](CC7=CC=CC=C7)CO [QS11] + COc1cc2c(Oc3ccc(NC(=O)C4(C(=O)Nc5ccc(F)cc5)CC4)cc3F)ccnc2cc1OCCCN1CCOCC1 [Foretinib] (partner 0.25 µM)
Method in brief: as §1

## LCLC-97TM1
[1]; first compound 0.08 µM
  relative viability: 0.191
[1]; first compound 0.8 µM
  relative viability: 0.153
[1]; first compound 2.53 µM
  relative viability: 0.15
[1]; first compound 8 µM
  relative viability: 0.178
Darinaparsin + Alpelisib; first compound 0.08 µM
  relative viability: 0.244
Darinaparsin + Alpelisib; first compound 0.8 µM
  relative viability: 0.237
Darinaparsin + Alpelisib; first compound 2.53 µM
  relative viability: 0.19
Darinaparsin + Alpelisib; first compound 8 µM
  relative viability: 0.26
AZ628 + AZD7762; first compound 0.08 µM
  relative viability: 0.307
AZ628 + AZD7762; first compound 0.253 µM
  relative viability: 0.331
AZ628 + AZD7762; first compound 0.8 µM
  relative viability: 0.243
AZ628 + AZD7762; first compound 2.53 µM
  relative viability: 0.201
AZ628 + AZD7762; first compound 8 µM
  relative viability: 0.108
QS11 + Foretinib; first compound 0.08 µM
  relative viability: 0.957
QS11 + Foretinib; first compound 0.253 µM
  relative viability: 0.949
QS11 + Foretinib; first compound 2.53 µM
  relative viability: 0.934
QS11 + Foretinib; first compound 8 µM
  relative viability: 0.931
